The subject of this test is NRF2 (NQO1 activity as marker for NRF2 activation), BEAS-2B cells. Briefly: BEAS-2B NQO1 MTT Assay. The class given is cell-based. The settings on record: Homo sapiens, EC50 of NQO1 specific activity induction, 48 hours incubation, read-out: EC50. The gist of the method:
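As a marker of NRF2 activation, NQO1 specific activity was read from the rate of absorbance change at 570 nm in MTT cocktail over 30 minutes. Lysates came from BEAS-2B cells treated for 48 hours at 37° C, and EC50 was derived by 3-parameter fitting.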

With `CCCn1nnc2c(C)c([C@H](c3ccc(C)c(CN4C[C@@H](CC)Oc5ccccc5S4(=O)=O)c3)C(C)(C)C(=O)Nc3cccnc3)ccc21` [Example 85, (S)-3-(3-(((R)-4-Ethyl-1,1-dioxido-3,4-dihydro-2H-benzo[b][1,4,5]oxathiazepin-2-yl)methyl)-4-methylphenyl)-2,2-dimethyl-3-(4-methyl-1-propyl-1H-benzo[d][1,2,3]triazol-5-yl)-N-(pyridin-3-yl)propanamide], the EC50 lay in the range of 10 to 100 nM. On to `CC[C@@H]1CN(Cc2cc([C@@H](c3ccc4c(nnn4CC)c3C)C(C)(C)C(=O)Nc3cnc(Cl)nc3)ccc2C)S(=O)(=O)c2cccnc2O1` [Example 86, (S)—N-(2-Chloropyrimidin-5-yl)-3-(3-(((R)-4-ethyl-1,1-dioxido-3,4-dihydro-2H-pyrido[2,3-b][1,4,5]oxathiazepin-2-yl)methyl)-4-methylphenyl)-3-(1-ethyl-4-methyl-1H-benzo[d][1,2,3]triazol-5-yl)-2,2-dimethylpropanamide], for which the EC50 was 1 to 10 nM. `CC[C@@H]1CN(Cc2cc([C@@H](c3ccc4c(nnn4CC)c3C)C(C)(C)C(N)=O)ccc2C)S(=O)(=O)c2ccccc2O1` [Example 87, (S)-3-(3-(((R)-4-Ethyl-1,1-dioxido-3,4-dihydro-2H-benzo[b][1,4,5]oxathiazepin-2-yl)methyl)-4-methylphenyl)-3-(1-ethyl-4-methyl-1H-benzo[d][1,2,3]triazol-5-yl)-2,2-dimethylpropanamide]: the EC50 was 1 to 10 nM. With `CC[C@H]1Cc2ccc(C(F)(F)F)cc2S(=O)(=O)N(Cc2cc([C@@H](c3ccc4c(nnn4CC)c3C)C(C)(C)C(N)=O)ccc2C)C1` [Example 88, (S)-3-(3-(((S)-4-ethyl-1,1-dioxido-8-(trifluoromethyl)-4,5-dihydrobenzo[f][1,2]thiazepin-2(3H)-yl)methyl)-4-methylphenyl)-3-(1-ethyl-4-methyl-1H-benzo[d][1,2,3]triazol-5-yl)-2,2-dimethylpropanamide], the EC50 fell in the range of 1 to 10 nM.

`CC[C@@H]1CN(Cc2cc([C@@H](c3ccc4c(nnn4C)c3C)C(C)(C)C(N)=O)ccc2Cl)S(=O)(=O)c2ccccc2O1` [Example 89, (S)-3-(4-chloro-3-(((R)-4-ethyl-1,1-dioxido-3,4-dihydro-2H-benzo[b][1,4,5]oxathiazepin-2-yl)methyl)phenyl)-3-(1,4-dimethyl-1H-benzo[d][1,2,3]triazol-5-yl)-2,2-dimethylpropanamide]: the EC50 lay in the range of 10 to 100 nM. In the case of `CC[C@H]1Cc2ccc(C(F)(F)F)cc2S(=O)(=O)N(Cc2cc([C@@H](OCc3cn(CC)nn3)C(C)(C)C(N)=O)ccc2C)C1` [Example 90, (R)-3-(3-(((S)-4-ethyl-1,1-dioxido-8-(trifluoromethyl)-4,5-dihydrobenzo[f][1,2]thiazepin-2(3H)-yl)methyl)-4-methylphenyl)-3-((1-ethyl-1H-1,2,3-triazol-4-yl)methoxy)-2,2-dimethylpropanamide], the EC50 lay in the range of 100 to 1000 nM. With `CC[C@@H]1CN(Cc2cc([C@@H](c3ccc4c(nnn4CC)c3C)C(C)(C)C(=O)Nc3cncnc3)ccc2C)S(=O)(=O)c2ccccc2O1` [Example 91, (S)-3-(3-(((R)-4-Ethyl-1,1-dioxido-3,4-dihydro-2H-benzo[b][1,4,5]oxathiazepin-2-yl)methyl)-4-methylphenyl)-3-(1-ethyl-4-methyl-1H-benzo[d][1,2,3]triazol-5-yl)-2,2-dimethyl-N-(pyrimidin-5-yl)propanamide] the figure was 1 to 10 nM; with `CC[C@H]1Cc2ccc(C(F)(F)F)cc2S(=O)(=O)N(Cc2cc([C@@H](c3ccc4c(nnn4CC)c3C)C(C)(C)C(=O)Nc3cncnc3)ccc2C)C1` [Example 92, (S)-3-(3-(((S)-4-Ethyl-1,1-dioxido-8-(trifluoromethyl)-4,5-dihydrobenzo[f][1,2]thiazepin-2(3H)-yl)methyl)-4-methylphenyl)-3-(1-ethyl-4-methyl-1H-benzo[d][1,2,3]triazol-5-yl)-2,2-dimethyl-N-(pyrimidin-5-yl)propanamide], 1 to 10 nM; with `CC[C@H]1Cc2ccccc2S(=O)(=O)N(Cc2cc([C@@H](c3ccc4c(nnn4CC)c3C)C(C)(C)C(=O)Nc3cncnc3)ccc2C)C1` [Example 93, (S)-3-(3-(((S)-4-Ethyl-1,1-dioxido-4,5-dihydrobenzo[f][1,2]thiazepin-2(3H)-yl)methyl)-4-methylphenyl)-3-(1-ethyl-4-methyl-1H-benzo[d][1,2,3]triazol-5-yl)-2,2-dimethyl-N-(pyrimidin-5-yl)propanamide], 1 to 10 nM. In the case of `CCn1nnc2c(C)c([C@H](c3ccc(C)c(CN4C[C@@H](C)Cc5cc(C(F)(F)F)ccc5S4(=O)=O)c3)C(C)(C)C(=O)Nc3cncnc3)ccc21` [Example 94, (S)-3-(1-Ethyl-4-methyl-1H-benzo[d][1,2,3]triazol-5-yl)-2,2-dimethyl-3-(4-methyl-3-(((S)-4-methyl-1,1-dioxido-7-(trifluoromethyl)-4,5-dihydrobenzo[f][1,2]thiazepin-2(3H)-yl)methyl)phenyl)-N-(pyrimidin-5-yl)propanamide] it was 1 to 10 nM; in that of `CC[C@H]1Cc2ncccc2S(=O)(=O)N(Cc2cc([C@@H](c3ccc4c(nnn4CC)c3C)C(C)(C)C(=O)Nc3cncnc3)ccc2C)C1` [Example 95, (S)-3-(3-(((S)-4-Ethyl-1,1-dioxido-4,5-dihydropyrido[2,3-f][1,2]thiazepin-2(3H)-yl)methyl)-4-methylphenyl)-3-(1-ethyl-4-methyl-1H-benzo[d][1,2,3]triazol-5-yl)-2,2-dimethyl-N-(pyrimidin-5-yl)propanamide], 1 to 10 nM; in that of `CC[C@@H]1CN(Cc2cc([C@@H](c3ccc4c(nnn4CC)c3C)C(C)(C)C(=O)Nc3cncnc3)ccc2C)S(=O)(=O)c2cnccc2O1` [Example 96, (S)-3-(3-(((R)-4-Ethyl-1,1-dioxido-3,4-dihydro-2H-pyrido[4,3-b][1,4,5]oxathiazepin-2-yl)methyl)-4-methylphenyl)-3-(1-ethyl-4-methyl-1H-benzo[d][1,2,3]triazol-5-yl)-2,2-dimethyl-N-(pyrimidin-5-yl)propanamide], 1 to 10 nM. For `CC[C@@H]1CN(Cc2cc([C@@H](c3ccc4c(nnn4CC)c3C)C(C)(C)C(=O)Nc3cncnc3)ccc2C)S(=O)(=O)c2ccc(Br)cc2O1` [Example 97, (S)-3-(3-(((R)-7-Bromo-4-ethyl-1,1-dioxido-3,4-dihydro-2H-benzo[b][1,4,5]oxathi-azepin-2-yl)methyl)-4-methylphenyl)-3-(1-ethyl-4-methyl-1H-benzo[d][1,2,3]triazol-5-yl)-2,2-dimethyl-N-(pyrimidin-5-yl)propanamide], the EC50 was in the range of 1 to 10 nM. For the compound `CC[C@@H]1CN(Cc2cc([C@@H](c3ccc4c(nnn4CC)c3C)C(C)(C)C(=O)Nc3cncnc3)ccc2C)S(=O)(=O)c2cc(Br)ccc2O1` [Example 98, (S)-3-(3-(((R)-8-Bromo-4-ethyl-1,1-dioxido-3,4-dihydro-2H-benzo[b][1,4,5]oxathi-azepin-2-yl)methyl)-4-methylphenyl)-3-(1-ethyl-4-methyl-1H-benzo[d][1,2,3]triazol-5-yl)-2,2-dimethyl-N-(pyrimidin-5-yl)propanamide], the EC50 was in the range of 1 to 10 nM.

What is called EC50 is the concentration needed to bring the measured effect to its halfway point.

Values taken from patent US11078216B2, “Bisaryl amides as NRF2 activators” (GLAXOSMITHKLINE INTELLECTUAL PROPERTY DEVELOPMENT LIMITED, priority 2016, dated 2021).
